Results from US10722523B2, “Chemoimmunotherapy for epithelial cancer” (THE REGENTS OF THE UNIVERSITY OF CALIFORNIA, priority 2015, dated 2020).

Experiments:
Myc-Cap (MC) tumors = assay: s.c. Myc-Cap (MC) prostate tumor model; type: in vivo, mouse; settings: 6 mg/kg
Description: All TRAMP mice, their derivatives and s.c. Myc-Cap transplantation were in the FVB genetic background and their basic immune parameters are shown in FIG. 15a-m. For s.c. TRAMP-C2 tumors, C57BL/6 mice were used. In both s.c. tumors, 2-3×10^6 cells/mouse were transplanted. More detailed information is as follows.
Mouse treatment studies were “matched design control trials.” Accordingly, mice were randomly chosen and paired based on sex (male), age (FIG. 6a) and tumor size. For transplanted tumor models, tumor size was defined by the median tumor volume (e.g. 400 mm^3, for late treatments, FIG. 6a,f). For TRAMP transgenic tumor models, treatment decisions were made based on age and mice were randomly chosen including a control littermate. An identification code was assigned to each tumor-bearing mouse both in the transplanted and transgenic models, and the investigators were blinded to treatment allocation at the time of tumor volume measurement, autopsy and analysis.
2×10^6 Myc-Cap^11 or 3×10^6 TRAMP-C2^12 cells (purchased from ATCC) were s.c. injected into the right flank. Tumors were measured every 2-3 days using a caliper. Tumor volumes were calculated as width^2×length/2.
B cells were depleted as previously described^13. Mice were weekly injected (i.p.) with a mixture of monoclonal antibodies, each at 150 μg/mouse: rat anti-mouse CD19 (clone 1D3), rat anti-mouse B220 (clone RA36B2), and mouse anti-mouse CD22 (clone CY34). After 48 hrs, the mice were injected with a secondary antibody (mouse anti-rat kappa chain; GeneTex) at 150 μg/mouse. In addition, mice were injected weekly, but not on the same day, with 250 μg/mouse rat anti-mouse CD20 (Genentech). Rat anti-mouse IgG2a and IgG1 were used as isotype controls. Mice were treated for 3 weeks in total (FIG. 1g; FIG. 7i-p). […]

Myc-Cap (MC) cells = assay: Cell death and autophagy of Myc-Cap cells in vitro (Annexin V/PI, LC3A flow cytometry); type: cell-based, mouse; settings: 24 hrs, both at 20 µM
Description: All results are means±s.e.m.
For adoptive T cell transfer (ATCT) CD8^+ T cells were isolated from single cell suspensions, prepared from spleens and lymph nodes as described above, using CD8α-specific microbeads and MACS-columns (both Miltenyi Biotec GmbH, Bergisch Gladbach, Germany), and 5×10^6 CD8^+ T cells were transferred intraperitoneally (i.p.; FIG. 14a-j). For adoptive B cell transfer (ABCT), B cells (B220^+/CD19^+) were isolated from single cell suspensions prepared from spleens using CD19- and B220-specific microbeads and MACS-columns, and 5×10^6 B cells were transferred i.p. (FIG. 4g-h, FIG. 12n,o). For adoptive splenocytes transfer (ACT), single cell suspensions prepared from spleens were transferred i.p., with one total spleen injected per mouse. Labelling with 5-(and 6-) carboxyfluorescein diacetate succinimidyl ester (CFSE; Molecular Probes, Eugene, Oreg.) was done according to manufacturer's protocol. 5×10^6 CD8^+ T cells or 7×10^6 B cells were transferred (equal to one spleen per mouse; FIG. 5a-i and FIG. 14k-q). For combined adoptive B and T cell transfer (FIG. 5j-1, FIG. 14r-t), T cells were isolated from WT-FVB mice immunized with a Myc-Cap cell lysate as previously described^10. […] The extent of cell death was determined by flow cytometry, showing that more than 90% of cells were positive for Annexin V and PI. The dead cells were injected subcutaneously (s.c.) into WT-FVB mice. Seven days later, T cells were isolated from single cell suspensions of spleen and LN using a Pan T cell isolation Kit (Miltenyi Biotec). B cells were isolated from spleens of naïve FVB-WT or FVB-Tgfbr2^ΔB mice using a Pan B cell isolation kit (Miltenyi Biotec). MC-tumor bearing Rag1^−/− mice received 5×10^6 T cells with or without 5×10^6 B cells (98% pure) from WT or Tgfbr2^ΔB mice. Purity was analyzed on a Beckman Coulter Cyan ADP flow cytometer and was always >98%.

N.N.[Cl][Pt][Cl] [cisplatin]
regression of MC tumors raised in Jh−/− mice (Myc-Cap (MC) tumors; LD, 3 weekly cycles, tumors 400 mm3): ineffective | immunogenic activity of low dose treatment (Myc-Cap (MC) tumors; MC tumors): devoid of immunogenic activity | apoptotic cell death of MC cells (Annexin V, propidium iodide) (Myc-Cap (MC) cells): induced apoptotic cell death
